For 8 compounds, IC50 results are on record in US5721366A, “Platelet aggregation inhibitors” (G. D. Searle & Co, priority 1995, dated 1998).

The structures appear in SMILES notation. Where a name gives a salt, the structure may show the parent alone.

Test [1] concerns Dog platelet aggregation (platelet-rich plasma). The experiment in a line: In-Vitro Platelet Aggregation in PRP (Dog), collagen-induced. Format: cell-based. The conditions noted are these: Canis lupus familiaris, Platelet, collagen-induced aggregation (33 μg/ml final), 37° C. How it is done: In-Vitro Platelet Aggregation in PRP--(Dog)
Healthy male or female dogs were fasted for 8 hours prior to drawing blood; then 60 ml whole blood was collected using a butterfly needle and 30 cc plastic syringe with 6 ml of 0.129M buffered sodium citrate (3.8%) (drawn from a minimum of 3 dogs and blood was pooled). The syringe was rotated carefully as blood was drawn to mix the citrate. Platelet-rich plasma (PRP) was prepared by centrifugation at 975×g for 3.17 minutes at room temperature, allowing the centrifuge to coast to a stop without braking. The PRP was removed from the blood with a plastic pipette and placed in a plastic capped 50 ml Corning conical sterile centrifuge tube which was held at room temperature. Platelet poor plasma (PPP) was prepared by centrifuging the remaining blood at 2000×g for 15 minutes at room temperature allowing the centrifuge to coast to a stop without braking. The platelet count in the PRP was routinely 2-4×10^8 platelets per ml. 400 μl of the PRP preparation and 50 μl of the compound to be tested or saline were preincubated for 2 minutes at 37° C. in a BioData aggregometer (BioData, Horsham, Pa.). 50 μl of collagen (diluted 1:3 with 5% dextrose and water solution, 33 μg/ml final concentration, equine tendon, Chronolog, Havertown, Pa.) was added to the cuvettes and the aggregation was monitored for 3 minutes. All compounds are tested in duplicate.
Results are calculated as follows:
Percent of control=[(maximal OD minus initial OD of compound) divided by (maximal OD minus initial OD of control saline)]×100. The % inhibition=100-(percent of control).
(§1) (NT in the following table indicates not tested.)

The subject of test [2] is Human platelet aggregation (platelet-rich plasma). The experiment in a line: Inhibition of Human Platelet Aggregation (PRP), collagen-induced. Format: cell-based. Particulars: Homo sapiens, Platelet, collagen-induced aggregation (4 μg/ml final), 37° C. How it is done: Inhibition of Human Platelet Aggregation (PRP)
Platelet rich plasma was prepared from citrated whole blood (3.8% Na citrate, 1:10 in 30 ml blood) withdrawn from the antecubital vein (n=1). PRP was prepared by centrifugation (Sorvall RC3C, DuPont, Wilmington, Del.) of the whole blood at 1000×g for 3 min, allowing the centrifuge to stop without braking. Platelet poor plasma (PPP) was prepared by centrifugation of PRP at 2000×g for 10 min. […] Aggregation was measured in a 4 channel aggregometer (model PAP-4C, Bio/Data Corp., Hatboro, Pa.). Aliquots of PPP were used to standardize the aggregometer for measurement of maximum light transmission. Platelet aggregation was measured as an increase in light transmission.
PRP (430 μl aliquot) was preincubated with 50 μl of various concentrations of compound (dissolved in 10% ETOH/water at a concentration of 10^-3 M. Compounds were diluted to desired concentration with 0.9% NaCl) for 2 min at 37° C., with stirring at 900 rpm, in the aggregometer. The stock collagen (Chronolog, Havertown, Pa., equine tendon) was diluted 1:10 with a 5% dextrose and water solution. The vehicle control response was obtained by adding 20 μl diluted collagen to the untreated aliquot of PRP+50 μl saline. Final collagen concentration was 4 μg/ml. Aggregation was recorded for 3 min following the addition of collagen. […] Percent inhibition was calculated by comparing treated and control samples. IC50 's were calculated graphically from dose-response curves. Average values and standard errors were calculated using the IC50 's of the individual experiments. Statistical analyses were done by an unequal variance, unpaired Student's t-test [Minitab Reference Manual, Minitab Inc., State College, Pa. (1988)]. Statistical significance was assumed when p<0.05 was found.
as §1

`CC(CC(=O)O)NC(=O)CC1CCN(c2ccc(C(=N)N)cc2)C1=O` (stereo not shown) [Example 10, 3-[[[-[4-(aminoiminomethyl)phenyl]-2-oxo-3-pyrrolidinyl]acetyl]amino]butanoic acid]: the IC50 in test [1] turned out to be 0.17 µM; in test [2], 0.26 µM.

As to `N=C(N)c1ccc(N2CCC(CC(=O)NC(CC(=O)O)c3ccccc3)C2=O)cc1` (stereo not shown) [Example 12, 3-[[[1-[4-(aminoiminomethyl)phenyl]-2-oxo-3-pyrrolidinyl]acetyl]amino]-3-phenylpropionic acid], the IC50 was 0.39 µM in test [1] and 0.29 µM in test [2].

With `N=C(N)c1ccc(N2CCC(CC(=O)NC[C@H](NC(=O)OCc3ccccc3)C(=O)O)C2=O)cc1` (stereo partly drawn) [Example 16, 3-[[[1-[4-(aminoiminomethyl)phenyl]-2-oxo-3-pyrrolidinyl]acetyl]amino]-N-[(phenylmethoxy)carbonyl]-L-alanine], the IC50 in test [1] was determined as 0.1 µM; in test [2], 0.31 µM.

Consider `C=C[C@H](CC(=O)O)NC(=O)NC1CCN(c2ccc(C(=N)N)cc2)C1=O` (stereo partly drawn) [Example 18, 3(S)-[[[[1-[4-(aminoiminomethyl]phenyl]-2-oxo-3-pyrrolidinyl]amino]carbonyl]amino]-4-pentenoic acid], for which the IC50 was found to be 0.17 µM in test [1] and 0.1 µM in test [2].

Take `C[C@@H](CCCC1CCN(c2ccc(C(=N)N)cc2)C1=O)CC(=O)O` (stereo partly shown) [Example 19, 1-[4-(aminoiminomethyl)phenyl]-βS-methyl-2-oxo-3-pyrrolidinehexanoic acid, monohydrochloride.]: the IC50 in test [1] is 0.15 µM; in test [2], 0.09 µM.

Take `N=C(N)c1ccc(N2CCCC(CC(=O)NC(C#Cc3ccccc3)CC(=O)O)C2=O)cc1` (stereo not shown) [Example 28, 3-[[[1-[4-(aminoiminomethyl)phenyl]-2-oxo-3-piperidinyl]acetyl]amino]-5-phenyl-4-pentynoic acid.]: the IC50 in test [1] is 0.17 µM; in test [2], 0.19 µM.

In the case of `CC(CC(=O)O)NC(=O)CC1CCCN(c2ccc(C(=N)N)cc2)C1=O` (stereo not shown) [Example 30, 3-[[[1-[4-(aminoiminomethyl)phenyl]-2-oxo-3-piperidinyl]acetyl]amino]-butanoic acid], the IC50 in test [1] amounted to 0.38 µM; in test [2] it was 0.28 µM.

`N=C(N)c1ccc(N2CCCC(CC(=O)NC(CC(=O)O)c3ccccc3)C2=O)cc1` (stereo not shown) [Example 32, 3-[[[1-[4-(aminoiminomethyl)phenyl]-2-oxo-3-piperidinyl]acetyl]amino]-3-phenylpropanoic acid]: the IC50 in test [1] amounted to 0.25 µM; in test [2], 0.16 µM.
